Usually MIC stands for the least concentration at which growth counts as inhibited. A higher MIC goes with weaker potency.

Each structure is given as a SMILES string. ≈ marks a conversion by molar mass, not a printed value.

The test system of one assay is Mycobacterium tuberculosis. Briefly: Ratio of MIC for ciprofloxacin to compound for Mycobacterium tuberculosis H37Rv. The format is functional.
Regarding `S=C1NC2=C(CN(Cc3ccccc3)C/C2=C\c2ccc(Cl)cc2Cl)C(c2ccc(Cl)cc2Cl)N1` (stereo not given), the Ratio was 1.7.

For the compound `Fc1ccc(/C=C2\CN(Cc3ccccc3)CC3=C2NC(=S)NC3c2ccc(F)cc2)cc1` (stereo not given), the Ratio amounted to 1.4.

The test system of a further assay is Mycobacterium tuberculosis. Briefly: Ratio of MIC for ethambutol to compound for Mycobacterium tuberculosis H37Rv. The format is functional.
Take `S=C1NC2=C(CN(Cc3ccccc3)C/C2=C\c2ccc(Cl)cc2Cl)C(c2ccc(Cl)cc2Cl)N1` (stereo not given): the Ratio is 2.7.

Regarding `Fc1cccc(/C=C2\CN(Cc3ccccc3)CC3=C2NC(=S)NC3c2cccc(F)c2)c1` (stereo not given), the Ratio worked out at 1.1.

With `Fc1ccc(/C=C2\CN(Cc3ccccc3)CC3=C2NC(=S)NC3c2ccc(F)cc2)cc1` (stereo not given), the Ratio is recorded as 2.2.

On to `CN1CC2=C(NC(=S)NC2c2c(Cl)cccc2Cl)/C(=C/c2c(Cl)cccc2Cl)C1` (stereo not given), for which the Ratio is 1.4.

Another assay concerns Mycobacterium tuberculosis. Briefly: Antituberculosis activity against Mycobacterium tuberculosis H37Rv by agar dilution method. The format is functional. (In general: In agar dilution, organisms are placed on agar that contains the substance at set levels.)
`COc1ccc(/C=C2\CN(Cc3ccccc3)CC3=C2NC(=S)NC3c2ccc(OC)cc2)cc1` (stereo not given): the MIC amounted to 51.7 µM (≈ 25 µg/mL).

The compound `COc1cc(/C=C2\CN(Cc3ccccc3)CC3=C2NC(=S)NC3c2cc(OC)c(OC)c(OC)c2)cc(OC)c1OC` (stereo not given) registered an MIC of 41.4 µM (≈ 25 µg/mL).

The compound `NNC(=O)c1ccncc1` [ISONIAZID] showed an MIC of 0.4 µM (≈ 0.0549 µg/mL).

In turn, `COc1ccc(/C=C2\CN(C)CC3=C2NC(=S)NC3c2ccc(OC)c(OC)c2)cc1OC` (stereo not given) had an MIC of 53.5 µM (≈ 25 µg/mL).

Regarding `COc1ccccc1/C=C1\CN(C)CC2=C1NC(=S)NC2c1ccccc1OC` (stereo not given), the MIC is 61.4 µM (≈ 25 µg/mL).

In the case of `COc1ccc(OC)c(/C=C2\CN(C)CC3=C2NC(=S)NC3c2cc(OC)ccc2OC)c1` (stereo not given), 53.5 µM (≈ 25 µg/mL) was the least that counted as inhibitory (MIC).

Regarding `COc1ccc(OC)c(/C=C2\CN(Cc3ccccc3)CC3=C2NC(=S)NC3c2cc(OC)ccc2OC)c1` (stereo not given), inhibition of growth (MIC) required 46 µM (≈ 25 µg/mL).

Regarding `S=C1NC2=C(CN(Cc3ccccc3)C/C2=C\c2ccccc2)C(c2ccccc2)N1` (stereo not given), the minimal inhibitory concentration (MIC) is 59 µM (≈ 25 µg/mL).

`COc1ccc(/C=C2\CN(Cc3ccccc3)CC3=C2NC(=S)NC3c2ccc(OC)c(OC)c2)cc1OC` (stereo not given) displayed an MIC of 46 µM (≈ 25 µg/mL).

Compound `S=C1NC2=C(CN(Cc3ccccc3)C/C2=C\c2ccc(Cl)cc2)C(c2ccc(Cl)cc2)N1` (stereo not given) yielded an MIC of 25.4 µM (≈ 12.5 µg/mL).

`CN1CC2=C(NC(=S)NC2c2cccc3ccccc23)/C(=C/c2cccc3ccccc23)C1` (stereo not given) came in with an MIC of 55.9 µM (≈ 25 µg/mL).

Compound `CO[C@H]1/C=C/O[C@@]2(C)Oc3c(C)c(O)c4c(O)c(c(/C=N/N5CCN(C)CC5)c(O)c4c3C2=O)NC(=O)/C(C)=C\C=C\[C@H](C)[C@H](O)[C@@H](C)[C@@H](O)[C@@H](C)[C@H](OC(C)=O)[C@@H]1C` [RIFAMPIN] showed an MIC of 0.1 µM (≈ 0.0823 µg/mL).

`CN1CC2=C(NC(=S)NC2c2ccc(N(C)C)cc2)/C(=C/c2ccc(N(C)C)cc2)C1` (stereo not given): the MIC was 57.7 µM (≈ 25 µg/mL).

With `S=C1NC2=C(CN(Cc3ccccc3)C/C2=C\c2cccc3ccccc23)C(c2cccc3ccccc23)N1` (stereo not given), the minimal inhibitory concentration (MIC) worked out at 47.7 µM (≈ 25 µg/mL).

Compound `CC[C@@H](CO)NCCN[C@@H](CC)CO` [ETHAMBUTOL] had an MIC of 7.6 µM (≈ 1.55 µg/mL).

For `CN1CC2=C(NC(=S)NC2c2ccc(F)cc2)/C(=C/c2ccc(F)cc2)C1` (stereo not given), 32.6 µM (≈ 12.5 µg/mL) was the least that counted as inhibitory (MIC).

In turn, `CN1CC2=C(NC(=S)NC2c2cccc(Br)c2)/C(=C/c2cccc(Br)c2)C1` (stereo not given) gave a minimum inhibitory concentration (MIC) of 24.7 µM (≈ 12.5 µg/mL).

In turn, `CN(C)c1ccc(/C=C2\CN(Cc3ccccc3)CC3=C2NC(=S)NC3c2ccc(N(C)C)cc2)cc1` (stereo not given) displayed an MIC of 49.1 µM (≈ 25 µg/mL).

Turning to `Cc1ccc(/C=C2\CN(Cc3ccccc3)CC3=C2NC(=S)NC3c2ccc(C)cc2)cc1` (stereo not given), the minimum inhibitory concentration (MIC) was 55.4 µM (≈ 25 µg/mL).

Regarding `COc1ccc(/C=C2\CN(C)CC3=C2N=C(S)NC3c2ccc(OC)cc2)cc1` (stereo not given), the minimum inhibitory concentration (MIC) was determined as 61.4 µM (≈ 25 µg/mL).

The compound `CN1CC2=C(N=C(S)NC2c2cccs2)/C(=C/c2cccs2)C1` (stereo not given) displayed a minimum inhibitory concentration (MIC) of 69.5 µM (≈ 25 µg/mL).

`Cc1ccc(/C=C2\CN(C)CC3=C2N=C(S)NC3c2ccc(C)cc2)cc1` (stereo not given) gave an MIC of 66.6 µM (≈ 25 µg/mL).

With `CN1CC2=C(NC(=S)NC2c2ccc(Br)cc2)/C(=C/c2ccc(Br)cc2)C1` (stereo not given), the MIC came to 24.7 µM (≈ 12.5 µg/mL).

Compound `Cc1ccccc1/C=C1\CN(C)CC2=C1NC(=S)NC2c1ccccc1C` (stereo not given) yielded an MIC of 66.6 µM (≈ 25 µg/mL).

Regarding `CN1CC2=C(NC(=S)NC2c2ccc3ccccc3c2)/C(=C/c2ccc3ccccc3c2)C1` (stereo not given), the MIC was found to be 55.9 µM (≈ 25 µg/mL).

`CN1CC2=C(N=C(S)NC2c2ccc(Cl)cc2)/C(=C/c2ccc(Cl)cc2)C1` (stereo not given): it took 30 µM (≈ 12.5 µg/mL) to inhibit growth (MIC).

`CC(C)c1ccc(/C=C2\CN(C)CC3=C2NC(=S)NC3c2ccc(C(C)C)cc2)cc1` (stereo not given): the lowest concentration to inhibit growth (MIC) was 57.9 µM (≈ 25 µg/mL).

For the compound `CN1CC2=C(N=C(S)NC2c2ccccc2Cl)/C(=C/c2ccccc2Cl)C1` (stereo not given), the minimum inhibitory concentration (MIC) was found to be 30 µM (≈ 12.5 µg/mL).

Compound `CN1CC2=C(NC(=S)NC2c2cccc(F)c2)/C(=C/c2cccc(F)c2)C1` (stereo not given) gave a minimum inhibitory concentration (MIC) of 16.3 µM (≈ 6.25 µg/mL).

`S=C1NC2=C(CN(Cc3ccccc3)C/C2=C\c2ccc(Cl)cc2Cl)C(c2ccc(Cl)cc2Cl)N1` (stereo not given) showed an MIC of 2.8 µM (≈ 1.57 µg/mL).

`Fc1cccc(/C=C2\CN(Cc3ccccc3)CC3=C2NC(=S)NC3c2cccc(F)c2)c1` (stereo not given) displayed an MIC of 6.8 µM (≈ 3.13 µg/mL).

Consider `Fc1ccc(/C=C2\CN(Cc3ccccc3)CC3=C2NC(=S)NC3c2ccc(F)cc2)cc1` (stereo not given), for which the minimal inhibitory concentration (MIC) was determined as 3.4 µM (≈ 1.56 µg/mL).

The compound `Cc1ccccc1/C=C1\CN(Cc2ccccc2)CC2=C1NC(=S)NC2c1ccccc1C` (stereo not given) registered an MIC of 55.4 µM (≈ 25 µg/mL).

`CN1CC2=C(N=C(S)NC2c2ccccc2)/C(=C/c2ccccc2)C1` (stereo not given) came in with an MIC of 71.9 µM (≈ 25 µg/mL).

`CC(C)c1ccc(/C=C2\CN(Cc3ccccc3)CC3=C2NC(=S)NC3c2ccc(C(C)C)cc2)cc1` (stereo not given): the MIC amounted to 24.6 µM (≈ 12.5 µg/mL).

In the case of `S=C1NC2=C(CN(Cc3ccccc3)C/C2=C\c2ccccc2Br)C(c2ccccc2Br)N1` (stereo not given), 21.5 µM (≈ 12.5 µg/mL) was the least that counted as inhibitory (MIC).

For `CN1CC2=C(NC(=S)NC2c2c(Cl)cccc2Cl)/C(=C/c2c(Cl)cccc2Cl)C1` (stereo not given), the lowest concentration to inhibit growth (MIC) was 5.6 µM (≈ 2.72 µg/mL).

For `CN1CC2=C(NC(=S)NC2c2ccc(Cl)cc2Cl)/C(=C/c2ccc(Cl)cc2Cl)C1` (stereo not given), the MIC came to 12.9 µM (≈ 6.26 µg/mL).

In the case of `S=C1NC2=C(CN(Cc3ccccc3)C/C2=C\c2ccccc2Cl)C(c2ccccc2Cl)N1` (stereo not given), the MIC was determined as 25.4 µM (≈ 12.5 µg/mL).

Values taken from ChEMBL document CHEMBL1770066, “A green expedient synthesis of pyridopyrimidine-2-thiones and their antitubercular activity” (2011).
